Reference: patent US10160747B2, “Compounds and methods for kinase modulation, and indications therefor” (Plexxikon Inc., priority 2016, dated 2018)

Target: T1, BA/F3-FLT3-ITD + D835Y (Homo sapiens, UniProt P36888, D835Y, cells depend on it, form not given)
T1 sequence (P36888 with tags, fused parts or gaps INS600HVDFREYEYD/D835Y): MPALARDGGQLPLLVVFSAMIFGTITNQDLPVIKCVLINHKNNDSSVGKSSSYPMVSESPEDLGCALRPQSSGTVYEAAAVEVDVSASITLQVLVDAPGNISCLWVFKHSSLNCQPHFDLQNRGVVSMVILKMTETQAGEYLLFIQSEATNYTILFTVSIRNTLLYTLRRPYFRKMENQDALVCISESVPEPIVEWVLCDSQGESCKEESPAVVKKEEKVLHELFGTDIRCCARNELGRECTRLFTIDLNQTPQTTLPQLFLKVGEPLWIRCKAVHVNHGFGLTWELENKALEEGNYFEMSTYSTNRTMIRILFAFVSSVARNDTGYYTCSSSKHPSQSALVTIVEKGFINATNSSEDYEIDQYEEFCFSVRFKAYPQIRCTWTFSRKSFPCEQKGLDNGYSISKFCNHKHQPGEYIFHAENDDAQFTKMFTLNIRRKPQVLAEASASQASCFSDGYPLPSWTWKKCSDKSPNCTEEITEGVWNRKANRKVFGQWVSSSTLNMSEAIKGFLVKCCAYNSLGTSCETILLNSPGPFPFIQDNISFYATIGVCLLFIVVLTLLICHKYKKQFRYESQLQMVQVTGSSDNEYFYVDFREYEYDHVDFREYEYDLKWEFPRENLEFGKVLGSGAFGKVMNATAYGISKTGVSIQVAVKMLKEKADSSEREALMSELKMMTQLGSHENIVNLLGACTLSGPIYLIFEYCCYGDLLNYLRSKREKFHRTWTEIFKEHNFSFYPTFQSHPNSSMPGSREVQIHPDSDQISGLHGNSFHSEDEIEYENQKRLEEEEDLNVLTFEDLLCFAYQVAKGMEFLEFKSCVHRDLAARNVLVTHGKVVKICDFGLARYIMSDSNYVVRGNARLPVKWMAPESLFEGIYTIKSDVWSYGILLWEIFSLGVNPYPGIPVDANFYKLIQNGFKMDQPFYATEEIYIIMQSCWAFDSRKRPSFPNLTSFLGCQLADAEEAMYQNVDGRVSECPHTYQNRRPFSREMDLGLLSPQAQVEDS
Experiment: Engineered BA/F3 cell growth assay, FLT3 ITD/D835Y
Type: cell-based, murine
Settings: 3 d growth
In short: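 Murine Ba/F3 cells transfected with full-length FLT3 ITD/D835Y, grown without IL-3 so growth depends on FLT3. Seeded at 1×10^4 cells/well, 8-point 1:3 series to 1 μM top (0.2% DMSO), 3 days at 37 °C. CellTiter-Glo luminescence (ATP) versus concentration gave IC50.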

Row | GI50 | SMILES
1 | 0.0001 to 10 µM | O=C(Cc1ccc(-c2cnc3[nH]c(-c4ccc(N5CCOCC5)nc4)cc3c2)cn1)Nc1ccnc(C(F)(F)F)c1 [Compound P-0183, 2-[5-[2-(6-morpholino-3-pyridyl)-1H-pyrrolo[2,3-b]pyridin-5-yl]-2-pyridyl]-N-[2-(trifluoromethyl)-4-pyridyl]acetamide]
2 | 0.0001 to 10 µM | Cn1cnc(Nc2ncc(-c3ccc(CC(=O)Nc4cnc(F)c(C(C)(F)F)c4)cc3)cn2)c1 [Compound P-0168, N-[5-(1,1-difluoroethyl)-6-fluoro-3-pyridyl]-2-[4-[2-[(1-methylimidazol-4-yl)amino]pyrimidin-5-yl]phenyl]acetamide]
3 | 0.0001 to 10 µM | O=C(Cc1ccc(-c2cnc3[nH]c(-c4cnn(C(F)F)c4)cc3c2)c(F)c1)Nc1cncc(C(F)(F)F)c1 [Compound P-0197, 2-[4-[2-[1-(difluoromethyl)pyrazol-4-yl]-1H-pyrrolo[2,3-b]pyridin-5-yl]-3-fluoro-phenyl]-N-[5-(trifluoromethyl)-3-pyridyl]acetamide]
4 | 0.0001 to 10 µM | COc1ccc(-c2cc3cc(-c4ccc(CC(=O)Nc5cncc(C(F)(F)F)c5)cc4F)cnc3[nH]2)cn1 [Compound P-0196, 2-[3-fluoro-4-[2-(6-methoxy-3-pyridyl)-1H-pyrrolo[2,3-b]pyridin-5-yl]phenyl]-N-[5-(trifluoromethyl)-3-pyridyl]acetamide]
5 | 0.0001 to 10 µM | Cn1cnc(Nc2ncc(-c3ccc(CC(=O)Nc4cncc(C(F)(F)F)c4)cc3)cn2)c1 [Compound P-0167]
6 | 0.0001 to 10 µM | Cn1cnc(Nc2ncc(-c3ccc(CC(=O)Nc4cnc(F)c(C(C)(F)F)c4)cc3F)cn2)c1 [Compound P-0170, N-[5-(1,1-difluoroethyl)-6-fluoro-3-pyridyl]-2-[3-fluoro-4-[2-[(1-methylimidazol-4-yl)amino]pyrimidin-5-yl]phenyl]acetamide]
7 | 0.0001 to 10 µM | COc1ncc(NC(=O)Cc2ccc(-c3cnc4[nH]nc(C)c4c3)c(F)c2)cc1C(F)(F)F [Compound P-0174, 2-[3-fluoro-4-(3-methyl-1H-pyrazolo[3,4-b]pyridin-5-yl)phenyl]-N-[6-methoxy-5-(trifluoromethyl)-3-pyridyl]acetamide]
8 | 0.0001 to 10 µM | COCCn1cc(Nc2ncc(-c3ccc(CC(=O)Nc4cncc(C(F)(F)F)c4)cc3)cn2)cn1 [Compound P-0178, 2-[4-[2-[[1-(2-methoxyethyl)pyrazol-4-yl]amino]pyrimidin-5-yl]phenyl]-N-[5-(trifluoromethyl)-3-pyridyl]acetamide]

More lines, now with the values behind:

Row | SMILES | GI50
9 | Cc1ncc(NC(=O)Cc2ccc(-c3cnc(Nc4cnn(C)c4)nc3)cc2)cc1C(F)(F)F [Compound P-0140, 2-[4-[2-[(1-methylpyrazol-4-yl)amino]pyrimidin-5-yl]phenyl]-N-[6-methyl-5-(trifluoromethyl)-3-pyridyl]acetamide] | 0.0001 to 10 µM
10 | Cn1cc(Nc2ncc(-c3ccc(CC(=O)Nc4ccc(C(F)(F)F)c(F)c4)cc3)cn2)cn1 [Compound P-0142, N-[3-fluoro-4-(trifluoromethyl)phenyl]-2-[4-[2-[(1-methylpyrazol-4-yl)amino]pyrimidin-5-yl]phenyl]acetamide] | 0.0001 to 10 µM
11 | O=C(Cc1ccc(-c2cnc3[nH]c(-c4ccccc4)cc3c2)cn1)Nc1ccnc(C(F)(F)F)c1 [Compound P-0005, 2-[5-(2-phenyl-1H-pyrrolo[2,3-b]pyridin-5-yl)-2-pyridyl]-N-[2-(trifluoromethyl)-4-pyridyl]acetamide] | 0.0001 to 10 µM
12 | COc1ccccc1CNC(=O)Cc1ccc(-c2cnc(Nc3cnn(C)c3)nc2)cc1 [Compound P-0160, N-[(2-methoxyphenyl)methyl]-2-[4-[2-[(1-methylpyrazol-4-yl)amino]pyrimidin-5-yl]phenyl]acetamide] | 0.0001 to 10 µM
13 | Cn1cc(Nc2ncc(-c3ccc(CC(=O)Nc4cccc(S(C)(=O)=O)c4)cc3)cn2)cn1 [Compound P-0155, 2-[4-[2-[(1-methylpyrazol-4-yl)amino]pyrimidin-5-yl]phenyl]-N-(3-methylsulfonylphenyl)acetamide] | 0.0001 to 10 µM
14 | Cn1cc(Nc2ncc(-c3ccc(CC(=O)Nc4cnnc(Cl)c4)cc3)cn2)cn1 [Compound P-0151, N-(6-chloropyridazin-4-yl)-2-[4-[2-[(1-methylpyrazol-4-yl)amino]pyrimidin-5-yl]phenyl]acetamide] | 0.0001 to 10 µM
15 | Cn1cc(Nc2ncc(-c3ccc(CC(=O)NCc4cncc(C(F)(F)F)c4)cc3)cn2)cn1 [Compound P-0161, 2-[4-[2-[(1-methylpyrazol-4-yl)amino]pyrimidin-5-yl]phenyl]-N-[[5-(trifluoromethyl)-3-pyridyl]methyl]acetamide] | 0.0001 to 10 µM
16 | Cn1cc(Nc2ncc(-c3ccc(CC(=O)Nc4ccc(C(F)(F)F)nc4)cc3)cn2)cn1 [Compound P-0095, 2-[4-[2-[(1-methylpyrazol-4-yl)amino]pyrimidin-5-yl]phenyl]-N-[6-(trifluoromethyl)-3-pyridyl]acetamide] | 0.0001 to 10 µM
17 | Cn1cc(Nc2ncc(-c3ccc(CC(=O)Nc4ccnc(S(C)(=O)=O)c4)cc3)cn2)cn1 [Compound P-0154, 2-[4-[2-[(1-methylpyrazol-4-yl)amino]pyrimidin-5-yl]phenyl]-N-(2-methylsulfonyl-4-pyridyl)acetamide] | 0.0001 to 10 µM
18 | Cn1cc(Nc2ncc(-c3ccc(CC(=O)Nc4cccnc4)cc3)cn2)cn1 [Compound P-0131, 2-[4-[2-[(1-methylpyrazol-4-yl)amino]pyrimidin-5-yl]phenyl]-N-(3-pyridyl)acetamide] | 0.0001 to 10 µM
19 | Cn1cc(Nc2ncc(-c3ccc(CC(=O)Nc4cccc(C(F)(F)F)n4)cc3)cn2)cn1 [Compound P-0152, 2-[4-[2-[(1-methylpyrazol-4-yl)amino]pyrimidin-5-yl]phenyl]-N-[6-(trifluoromethyl)-2-pyridyl]acetamide] | 0.0001 to 10 µM
20 | COc1ncc(NC(=O)Cc2ccc(-c3cnc(Nc4cnn(C)c4)nc3)cc2)cc1C(F)(F)F [Compound P-0138, N-[6-methoxy-5-(trifluoromethyl)-3-pyridyl]-2-[4-[2-[(1-methylpyrazol-4-yl)amino]pyrimidin-5-yl]phenyl]acetamide] | 0.0001 to 10 µM
21 | Cn1cc(Nc2ncc(-c3ccc(CC(=O)Nc4cncc(C(F)(F)F)c4)cc3)cn2)cn1 [Compound P-0136, 2-[4-[2-[(1-methylpyrazol-4-yl)amino]pyrimidin-5-yl]phenyl]-N-[5-(trifluoromethyl)-3-pyridyl]acetamide] | 0.0001 to 10 µM
22 | Cc1ncc(NC(=O)Cc2ccc(-c3cnc(Nc4cn(C)cn4)nc3)cc2F)cc1C(F)(F)F [Compound P-0099, 2-[2-fluoro-4-[2-[(1-methylimidazol-4-yl)amino]pyrimidin-5-yl]phenyl]-N-[6-methyl-5-(trifluoromethyl)-3-pyridyl]acetamide] | 0.0001 to 10 µM
23 | Cn1cc(Nc2ncc(-c3ccc(CC(=O)NCc4ncccc4C(F)(F)F)cc3)cn2)cn1 [Compound P-0159, 2-[4-[2-[(1-methylpyrazol-4-yl)amino]pyrimidin-5-yl]phenyl]-N-[[3-(trifluoromethyl)-2-pyridyl]methyl]acetamide] | 0.0001 to 10 µM
24 | CCn1cc(Nc2ncc(-c3ccc(CC(=O)Nc4cnc(Cl)c(C(F)(F)F)c4)cc3)cn2)cn1 [Compound P-0165, N-[6-chloro-5-(trifluoromethyl)-3-pyridyl]-2-[4-[2-[(1-ethylpyrazol-4-yl)amino]pyrimidin-5-yl]phenyl]acetamide] | 0.0001 to 10 µM
25 | Cn1cnc(Nc2ncc(-c3ccc(CC(=O)Nc4cc(C(C)(F)F)ccn4)c(F)c3)cn2)c1 [Compound P-0102, N-[4-(1,1-difluoroethyl)-2-pyridyl]-2-[2-fluoro-4-[2-[(1-methylimidazol-4-yl)amino]pyrimidin-5-yl]phenyl]acetamide] | 0.0001 to 10 µM
26 | Cn1cc(Nc2ncc(-c3ccc(CC(=O)Nc4ccnc(C5CC5)c4)c(F)c3)cn2)cn1 [Compound P-0098, N-(2-cyclopropyl-4-pyridyl)-2-[2-fluoro-4-[2-[(1-methylpyrazol-4-yl)amino]pyrimidin-5-yl]phenyl]acetamide] | 0.0001 to 10 µM
27 | CCc1cncc(NC(=O)Cc2ccc(-c3cnc(Nc4cnn(C)c4)nc3)cc2F)c1 [Compound P-0111, N-(5-ethyl-3-pyridyl)-2-[2-fluoro-4-[2-[(1-methylpyrazol-4-yl)amino]pyrimidin-5-yl]phenyl]acetamide] | 0.0001 to 10 µM
28 | Cc1ncc(NC(=O)Cc2ccc(-c3cnc(Nc4cnn(C)c4)nc3)cc2F)cc1C(F)(F)F [Compound P-0091, 2-[2-fluoro-4-[2-[(1-methylpyrazol-4-yl)amino]pyrimidin-5-yl]phenyl]-N-[6-methyl-5-(trifluoromethyl)-3-pyridyl]acetamide] | 0.0001 to 10 µM
